Common to all, as to format: in vivo
In experiment [1] the test system is Matricaria inodora. Nature of the experiment: Herbicidal pre-emergence action, MATIN. As to conditions: 1280 g/ha, visual grading after ca. 3 weeks vs untreated controls. An excerpt:
(§1) Seeds of mono- and dicotyledonous weed plants were sown in plastic pots (double sowings with one species of mono- and one species of dicotyledonous weed plants per pot), in sandy loam, and covered with soil. The compounds according to the invention, formulated in the form of wettable powders (WP) or as emulsifiable concentrates (EC), were applied to the surface of the covering soil as an aqueous suspension or as an emulsion, with the addition of 0.5% of an additive, at an application rate of 600 litres of water per hectare (converted). Following treatment, the pots were placed in a greenhouse and kept under optimum growth conditions for the test plants. The visual grading of the damage to the test plants is carried out after ca. 3 weeks in comparison to untreated controls (herbicidal effect in percent (%): 100% effect=plants have died, 0% effect=as control plants). Seeds of mono- and dicotyledonous weed plants were sown in plastic pots (double sowings with one species of mono- and one species of dicotyledonous weed plants per pot), in sandy loam, and covered with soil. The compounds according to the invention, formulated in the form of wettable powders (WP) or as emulsifiable concentrates (EC), were applied to the surface of the covering soil as an aqueous suspension or as an emulsion, with the addition of 0.5% of an additive, at an application rate of 600 litres of water per hectare (converted). Following treatment, the pots were placed in a greenhouse and kept under optimum growth conditions for the test plants. The visual grading of the damage to the test plants is carried out after ca. 3 weeks in comparison to untreated controls (herbicidal effect in percent (%): 100% effect=plants have died, 0% effect=as control plants).

The test system of experiment [2] is Stellaria media. The experiment in a line: Herbicidal pre-emergence action, STEME. As to conditions: visual grading after ca. 3 weeks vs untreated controls.
Text: as §1

In experiment [3] the test system is Veronica persica. The experiment in a line: Herbicidal pre-emergence action, VERPE. The conditions noted are these: 1280 g/ha, visual grading after ca. 3 weeks vs untreated controls.
Text: as §1

Experiment [4] has as its system Poa annua. The experiment in a line: Herbicidal pre-emergence action, POAAN. The conditions noted are these: visual grading after ca. 3 weeks vs untreated controls.
Text: as §1

For experiment [5], the system named is Amaranthus retroflexus. The experiment in a line: Herbicidal pre-emergence action, AMARE. As to conditions: 1280 g/ha, visual grading after ca. 3 weeks vs untreated controls.
Text: as §1

Experiment [6] has as its system Stellaria media. The experiment in a line: Herbicidal post-emergence action, STEME. As to conditions: assessed visually after ca. 3 weeks vs untreated controls. From the text: (§2) Seeds of mono- and dicotyledonous weed plants were sown in plastic pots (double sowings with one species of mono- and one species of dicotyledonous weed plants per pot), in sandy loam, covered with soil and grown under controlled growth conditions. 2 to 3 weeks after sowing, the test plants were sprayed in the single-leaf stage. The compounds according to the invention, formulated in the form of wettable powders (WP) or as emulsifiable concentrates (EC), were sprayed onto the green plant parts as an aqueous suspension or as an emulsion, with the addition of 0.5% of an additive, at an application rate of 600 litres of water per hectare (converted). The test plants were placed in the greenhouse for ca. 3 weeks under optimum growth conditions, and then the effect of the preparations is assessed visually in comparison with untreated controls (herbicidal effect in percent (%): 100% effect=plants have died, 0% effect=as control plants). […]

The test system of experiment [7] is Veronica persica. Nature of the experiment: Herbicidal post-emergence action, VERPE. The conditions noted are these: assessed visually after ca. 3 weeks vs untreated controls.
Text: as §2

The test system of experiment [8] is Amaranthus retroflexus. Nature of the experiment: Herbicidal post-emergence action, AMARE. As to conditions: assessed visually after ca. 3 weeks vs untreated controls.
Text: as §2

The subject of another experiment is Lolium rigidum. The experiment in a line: Herbicidal pre-emergence action, LOLRI. As to conditions: 1280 g/ha, visual grading after ca. 3 weeks vs untreated controls.
Text: as §1

Experiment [9] deals with Poa annua. The experiment in a line: Herbicidal post-emergence action, POAAN. As to conditions: assessed visually after ca. 3 weeks vs untreated controls.
Text: as §2

For a further experiment, the system named is Alopecurus myosuroides. Nature of the experiment: Herbicidal post-emergence action, ALOMY. The conditions noted are these: 1280 g/ha, assessed visually after ca. 3 weeks vs untreated controls.
Text: as §2

A further experiment concerns Kochia scoparia. The experiment in a line: Herbicidal post-emergence action, KCHSC. The conditions noted are these: 1280 g/ha, assessed visually after ca. 3 weeks vs untreated controls.
Text: as §2

For another experiment, the system named is Abutilon theophrasti. The experiment in a line: Herbicidal post-emergence action, ABUTH. As to conditions: 1280 g/ha, assessed visually after ca. 3 weeks vs untreated controls.
Text: as §2

For experiment [10], the system named is Matricaria inodora. The experiment in a line: Herbicidal post-emergence action, MATIN. As to conditions: assessed visually after ca. 3 weeks vs untreated controls.
Text: as §2

Structures are written as SMILES.

Consider `Cc1ccnc(Cl)c1C(=O)Nc1ncns1` [Example I-003], for which the “herbicidal effect MATIN” value in the experiment on Matricaria inodora [1] was 100%. Moreover, the “herbicidal effect STEME” value in the experiment with Stellaria media [2] (1280 g/ha) was found to be 100%; in the experiment on Stellaria media [6] (1280 g/ha), 90%. In addition, the “herbicidal effect VERPE” value is on record as 90% in the experiment with Veronica persica [3], 90% with Veronica persica [7] (320 g/ha) and 100% in the experiment on Veronica persica [7] (1280 g/ha). The “herbicidal effect POAAN” value in the experiment on Poa annua [4] (1280 g/ha) is 100%. Further, the figures for the “herbicidal effect AMARE” value in the experiment with Amaranthus retroflexus [5], in the experiment on Amaranthus retroflexus [8] (320 g/ha) and in the experiment on Amaranthus retroflexus [8] (1280 g/ha) were 100%, 90% and 90%, respectively.

As for `CCc1ccnc(Cl)c1C(=O)Nc1ncns1` [Example I-004], the “herbicidal effect LOLRI” value with Lolium rigidum is on record as 100%. Further, the “herbicidal effect MATIN” value in the experiment on Matricaria inodora [1] worked out at 90%. The “herbicidal effect STEME” value in the experiment with Stellaria media [2] (1280 g/ha) worked out at 100%. Also, the “herbicidal effect POAAN” value amounted to 90% with Poa annua [4] (1280 g/ha) and 100% in the experiment on Poa annua [9] (1280 g/ha). Moreover, the entries for the “herbicidal effect AMARE” value in the experiment with Amaranthus retroflexus [5] and in the experiment with Amaranthus retroflexus [8] (1280 g/ha) were 90% and 100%, respectively. Besides, the “herbicidal effect VERPE” value with Veronica persica [7] (1280 g/ha) is recorded as 100%.

For the molecule `Cc1nsc(NC(=O)c2c(C(F)(F)F)ccnc2F)n1` [Example I-008], the “herbicidal effect STEME” value in the experiment on Stellaria media [2] (1280 g/ha) turned out to be 90%; in the experiment on Stellaria media [6] (320 g/ha) it was 90%; in the experiment with Stellaria media [6] (1280 g/ha), 100%. The “herbicidal effect AMARE” value is listed as 90% in the experiment on Amaranthus retroflexus [5] and 100% with Amaranthus retroflexus [8] (1280 g/ha). For the same molecule, in the experiment on Alopecurus myosuroides, the “herbicidal effect ALOMY” value turned out to be 90%. Also, the “herbicidal effect VERPE” value in the experiment on Veronica persica [7] (1280 g/ha) is listed as 90%.

Regarding `COc1nccc(C(F)(F)F)c1C(=O)Nc1ncns1` [Example I-010], the “herbicidal effect LOLRI” value in the experiment on Lolium rigidum is 100%. Moreover, in the experiment with Matricaria inodora [1], the “herbicidal effect MATIN” value was determined as 100%. Moreover, the “herbicidal effect STEME” value with Stellaria media [2] (1280 g/ha) was 90%. The “herbicidal effect POAAN” value in the experiment on Poa annua [4] (1280 g/ha) turned out to be 100%; in the experiment on Poa annua [9] (320 g/ha), 90%; in the experiment on Poa annua [9] (1280 g/ha) it was 90%. For the same molecule, the “herbicidal effect KCHSC” value in the experiment with Kochia scoparia came to 100%. Also, the “herbicidal effect VERPE” value in the experiment with Veronica persica [7] (320 g/ha) and with Veronica persica [7] (1280 g/ha) was 100% each time. For the same molecule, the “herbicidal effect AMARE” value in the experiment with Amaranthus retroflexus [8] (320 g/ha) and with Amaranthus retroflexus [8] (1280 g/ha) was 100% throughout.

Regarding `Cc1ccncc1C(=O)Nc1ncns1` [Example I-011], the “herbicidal effect MATIN” value in the experiment on Matricaria inodora [1] is on record as 90%. Moreover, the “herbicidal effect STEME” value in the experiment with Stellaria media [2] (320 g/ha) and in the experiment with Stellaria media [2] (1280 g/ha) was 90% throughout. The “herbicidal effect POAAN” value with Poa annua [4] (320 g/ha) is listed as 90%; with Poa annua [4] (1280 g/ha), 100%. Further, the “herbicidal effect AMARE” value in the experiment on Amaranthus retroflexus [5] came out at 100%.

For the molecule `O=C(Nc1nc(C(F)(F)F)ns1)c1cnccc1C(F)(F)F` [Example I-013], the results for the “herbicidal effect AMARE” value in the experiment with Amaranthus retroflexus [5], in the experiment on Amaranthus retroflexus [8] (320 g/ha) and with Amaranthus retroflexus [8] (1280 g/ha) were 100%, 90% and 100%, respectively. Also, the “herbicidal effect ABUTH” value in the experiment on Abutilon theophrasti was found to be 100%. Besides, the “herbicidal effect KCHSC” value with Kochia scoparia is 100%. Also, the “herbicidal effect MATIN” value with Matricaria inodora [10] (320 g/ha) and in the experiment with Matricaria inodora [10] (1280 g/ha) was 100% each time. Also, the “herbicidal effect STEME” value in the experiment on Stellaria media [6] (1280 g/ha) is listed as 100%. Also, the “herbicidal effect VERPE” value in the experiment with Veronica persica [7] (320 g/ha) and in the experiment on Veronica persica [7] (1280 g/ha) was 100% throughout.

Turning to `O=C(Nc1nc(Br)ns1)c1cnccc1C(F)(F)F` [Example I-014], the “herbicidal effect KCHSC” value in the experiment with Kochia scoparia is reported as 90%. Also, the “herbicidal effect MATIN” value with Matricaria inodora [10] (1280 g/ha) is given as 100%. The “herbicidal effect STEME” value worked out at 90% in the experiment on Stellaria media [6] (320 g/ha) and 100% in the experiment with Stellaria media [6] (1280 g/ha). In addition, in the experiment with Veronica persica [7] (1280 g/ha), the “herbicidal effect VERPE” value is 100%. In the experiment with Amaranthus retroflexus [8] (1280 g/ha), the “herbicidal effect AMARE” value is reported as 100%.

The values above are taken from patent publication US20240349726A1, “SUBSTITUTED 1,2,4-THIADIAZOLYL NICOTINAMIDES, SALTS OR N-OXIDES THEREOF AND THEIR USE AS HERBICIDALLY ACTIVE SUBSTANCES” (Bayer Aktiengesellschaft, priority 2021, published 2024).
